Test results: ChEMBL document CHEMBL1201862, “PubChem BioAssay data set” (2004)
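Values below derive from 48-hour exposures of cells grown in 96-well plates, with endpoints linearly interpolated between the two concentrations bracketing the appropriate inhibition level. At the GI50, growth is halved.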 Calls of active or inactive are those of the source. Rule as the data show it: active = GI50 up to about 1.1 µM and inactive = higher.

Legend:
Experiment in all cases: growth of human tumour cells (NCI), 48 h
OVCAR-4 = test system: OVCAR-4
BT-549 = test system: BT-549
UO-31 = test system: UO-31
NCI/ADR-RES = test system: NCI/ADR-RES
HCT-15 = test system: HCT-15
HOP-92 = test system: HOP-92
M14 = test system: M14
A498 = test system: A498
NCI-H226 = test system: NCI-H226
HT-29 = test system: HT-29
SK-MEL-28 = test system: SK-MEL-28
HCT-116 = test system: HCT-116
SNB-19 = test system: SNB-19
RXF 393 = test system: RXF 393
U-251 = test system: U-251
MDA-MB-435 = test system: MDA-MB-435
T47D = test system: T47D
MCF7 = test system: MCF7
TK-10 = test system: TK-10
MDA-MB-231 = test system: MDA-MB-231
SW-620 = test system: SW-620
ACHN = test system: ACHN
COLO 205 = test system: COLO 205
OVCAR-5 = test system: OVCAR-5
MOLT-4 = test system: MOLT-4
MDA-N = test system: MDA-N
SF-539 = test system: SF-539
NCI-H23 = test system: NCI-H23
OVCAR-3 = test system: OVCAR-3
Hs-578T = test system: Hs-578T
A549 = test system: A549
EKVX = test system: EKVX
SN12C = test system: SN12C
SK-MEL-2 = test system: SK-MEL-2
IGROV-1 = test system: IGROV-1
SF-295 = test system: SF-295
SNB-75 = test system: SNB-75
SF-268 = test system: SF-268
SK-MEL-5 = test system: SK-MEL-5
OVCAR-8 = test system: OVCAR-8
DU-145 = test system: DU-145
786-0 = test system: 786-0
HCC 2998 = test system: HCC 2998
UACC-62 = test system: UACC-62
KM12 = test system: KM12
SK-OV-3 = test system: SK-OV-3
NCI-H460 = test system: NCI-H460
UACC-257 = test system: UACC-257
HOP-62 = test system: HOP-62
HL-60 = test system: HL-60
CAKI-1 = test system: CAKI-1
CCRF-CEM = test system: CCRF-CEM
K562 = test system: K562
NCI-H522 = test system: NCI-H522
LOX IMVI = test system: LOX IMVI
PC-3 = test system: PC-3

## O=C(Cc1ccccc1)NN1C(=O)/C(=C\c2ccccc2)S/C1=N\c1ccccc1
OVCAR-4
  GI50: > 100 µM (inactive)
BT-549
  GI50: > 100 µM (inactive)
UO-31
  GI50: > 100 µM (inactive)
NCI/ADR-RES
  GI50: > 100 µM (inactive)
HCT-15
  GI50: > 100 µM
HOP-92
  GI50: > 100 µM (inactive)
M14
  GI50: > 100 µM (inactive)
A498
  GI50: > 100 µM (inactive)
NCI-H226
  GI50: > 100 µM (inactive)
HT-29
  GI50: > 100 µM (inactive)
SK-MEL-28
  GI50: > 100 µM (inactive)
HCT-116
  GI50: > 100 µM (inactive)
SNB-19
  GI50: > 100 µM (inactive)
RXF 393
  GI50: > 100 µM (inactive)
U-251
  GI50: > 100 µM (inactive)
MDA-MB-435
  GI50: > 100 µM (inactive)
T47D
  GI50: > 100 µM (inactive)
MCF7
  GI50: > 100 µM (inactive)
TK-10
  GI50: > 100 µM (inactive)
MDA-MB-231
  GI50: > 100 µM (inactive)
SW-620
  GI50: > 100 µM (inactive)
ACHN
  GI50: > 100 µM (inactive)
COLO 205
  GI50: > 100 µM (inactive)
OVCAR-5
  GI50: > 100 µM (inactive)
MOLT-4
  GI50: > 100 µM (inactive)
MDA-N
  GI50: > 100 µM (inactive)
SF-539
  GI50: > 100 µM (inactive)
NCI-H23
  GI50: > 100 µM (inactive)
OVCAR-3
  GI50: > 100 µM (inactive)
Hs-578T
  GI50: > 100 µM (inactive)
A549
  GI50: > 100 µM (inactive)
EKVX
  GI50: > 100 µM (inactive)
SN12C
  GI50: > 100 µM (inactive)
SK-MEL-2
  GI50: > 100 µM (inactive)
IGROV-1
  GI50: > 100 µM (inactive)
SF-295
  GI50: > 100 µM (inactive)
SNB-75
  GI50: > 100 µM (inactive)
SF-268
  GI50: > 100 µM (inactive)
SK-MEL-5
  GI50: > 100 µM (inactive)
OVCAR-8
  GI50: > 100 µM (inactive)
DU-145
  GI50: > 100 µM (inactive)
786-0
  GI50: > 100 µM (inactive)
HCC 2998
  GI50: > 100 µM (inactive)
UACC-62
  GI50: > 100 µM (inactive)
KM12
  GI50: > 100 µM (inactive)
SK-OV-3
  GI50: > 100 µM (inactive)
NCI-H460
  GI50: > 100 µM (inactive)
UACC-257
  GI50: > 100 µM (inactive)
HOP-62
  GI50: > 100 µM (inactive)

## CC1CC[P+](c2ccccc2)(c2ccccc2)c2c1ccc1ccccc21 (stereo not drawn)
OVCAR-4
  GI50: 12.6 µM (inactive)
BT-549
  GI50: 1.23 µM (inactive)
UO-31
  GI50: 27 µM (inactive)
HL-60
  GI50: 2.51 µM (inactive)
HCT-15
  GI50: 40.5 µM
HOP-92
  GI50: 1.15 µM (inactive)
M14
  GI50: 5.89 µM (inactive)
CAKI-1
  GI50: 7.85 µM (inactive)
CCRF-CEM
  GI50: 4.3 µM (inactive)
HT-29
  GI50: 2.32 µM (inactive)
HCT-116
  GI50: 2.67 µM (inactive)
SNB-19
  GI50: 4.07 µM (inactive)
RXF 393
  GI50: 9.77 µM (inactive)
MDA-MB-435
  GI50: 2.78 µM (inactive)
T47D
  GI50: 0.698 µM (active)
MCF7
  GI50: 2.14 µM (inactive)
ACHN
  GI50: 14 µM (inactive)
OVCAR-5
  GI50: 5.81 µM (inactive)
K562
  GI50: 0.942 µM (active)
MOLT-4
  GI50: 6.75 µM (inactive)
NCI-H522
  GI50: 1.16 µM (inactive)
SF-539
  GI50: 4.82 µM (inactive)
NCI-H23
  GI50: 2.4 µM (inactive)
LOX IMVI
  GI50: 2.25 µM (inactive)
Hs-578T
  GI50: 1.79 µM (inactive)
A549
  GI50: 9.1 µM (inactive)
SN12C
  GI50: 3.94 µM (inactive)
SK-MEL-2
  GI50: 1.79 µM (inactive)
SF-295
  GI50: 3.33 µM (inactive)
SNB-75
  GI50: 1.79 µM (inactive)
SF-268
  GI50: 7.89 µM (inactive)
SK-MEL-5
  GI50: 1.34 µM (inactive)
OVCAR-8
  GI50: 2.44 µM (inactive)
HCC 2998
  GI50: 6.12 µM (inactive)
UACC-62
  GI50: 4.13 µM (inactive)
KM12
  GI50: 3.13 µM (inactive)
PC-3
  GI50: 1.51 µM (inactive)
NCI-H460
  GI50: 2.64 µM (inactive)
UACC-257
  GI50: 0.607 µM (active)
